Test results reported in patent US8404643B2, “Metastin derivatives and use thereof” (priority 2005, dated 2013).
Square brackets hold non-standard residues; d marks the D form. Peptide text beside a SMILES is read from it. Phe(4-Cl) = N[C@@H](Cc1ccc(Cl)cc1)C(=O)O; Phe(3-F) = N[C@@H](Cc1cccc(F)c1)C(=O)O; Phe(4-F) = N[C@@H](Cc1ccc(F)cc1)C(=O)O; Phe(2-F) = N[C@@H](Cc1ccccc1F)C(=O)O; Phe(2-Me) = Cc1ccccc1C[C@H](N)C(=O)O; Arg(Me) = CNC(=N)NCCC[C@H](N)C(=O)O; Hyp = O=C(O)[C@@H]1C[C@@H](O)CN1; Orn = NCCC[C@H](N)C(=O)O; dNMeA = CN[C@H](C)C(=O)O; Aib = CC(C)(N)C(=O)O; azaGly = NNC(=O)O; βAla = NCCC(=O)O

target: T1, hOT7T175 (Homo sapiens, UniProt Q969F8); assay: Assay for intracellular Ca ion level-increasing activity using FLIPR; type: cell-based; conditions: hOT7T175/CHO cells, relative to Metastin (1-54)
T1 construct: expressed in transfected cells
T1 sequence (Q969F8 whole entry L364H): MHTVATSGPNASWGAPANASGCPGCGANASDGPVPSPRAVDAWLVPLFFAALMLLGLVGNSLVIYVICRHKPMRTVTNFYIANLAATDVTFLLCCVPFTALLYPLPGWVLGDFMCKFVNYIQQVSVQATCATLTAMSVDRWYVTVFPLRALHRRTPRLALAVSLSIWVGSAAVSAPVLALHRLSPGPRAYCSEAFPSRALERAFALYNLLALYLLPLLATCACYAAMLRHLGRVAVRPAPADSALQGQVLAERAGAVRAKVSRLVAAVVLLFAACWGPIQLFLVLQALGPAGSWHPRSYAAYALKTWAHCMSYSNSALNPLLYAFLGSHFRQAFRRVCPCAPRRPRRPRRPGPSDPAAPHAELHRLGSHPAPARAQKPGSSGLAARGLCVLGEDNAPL
Outline: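 CHO/dhfr− cells stably transfected with hOT7T175, selected for high metastin response, loaded with Fluo3-AM for 1 h at 37 °C in HANKS/HBSS (pH 7.4) with probenecid. Peptides were diluted from 1×10^−3 M DMSO stock into HANKS/HBSS with 2.5 mM probenecid, 0.2% BSA, 0.1% CHAPS; intracellular Ca rise read by FLIPR.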

| Molecule | Specific Activity: intracellular Ca ion level-increasing activity [specific activity to Metastin (1-54)] |
| --- | --- |
| CNC(=N)NCCC[C@H](NC(=O)[C@H](CC(C)C)NC(=O)NNC(=O)[C@H](Cc1ccccc1)NC(=O)[C@@H](C)NC(=O)[C@H](CC(N)=O)NC(=O)[C@@H]1C[C@@H](O)CN1C(=O)[C@@H](Cc1ccc(O)cc1)NC(C)=O)C(=O)N[C@@H](Cc1c[nH]c2ccccc12)C(N)=O [Compound No. 815, Ac-D-Tyr-Hyp-Asn-D-Ala-Phe-AzaGly-Leu-Arg(Me)-Trp-NH2] (Ac-[dY][Hyp]N[dA]F[azaGly]L[Arg(Me)]W-NH2) | 0.5 |
| CNC(=N)NCCC[C@H](NC(=O)[C@H](CC(C)C)NC(=O)NNC(=O)[C@H](Cc1ccccc1)NC(=O)[C@@H](NC(=O)[C@H](CC(N)=O)NC(=O)[C@H](CCCN)NC(=O)[C@@H](Cc1ccc(O)cc1)NC(C)=O)[C@@H](C)O)C(=O)N[C@@H](Cc1c[nH]c2ccccc12)C(N)=O [Compound No. 771, Ac-D-Tyr-Orn-Asn-Thr-Phe-AzaGly-Leu-Arg(Me)-Trp-NH2] (Ac-[dY][Orn]NTF[azaGly]L[Arg(Me)]W-NH2) | 1.9 |
| CNC(=N)NCCC[C@H](NC(=O)[C@H](CC(C)C)NC(=O)NNC(=O)[C@H](Cc1ccccc1)NC(=O)[C@@H](NC(=O)[C@H](CC(N)=O)NC(=O)[C@@H](CCC(N)=O)NC(=O)[C@@H](Cc1ccc(O)cc1)NC(C)=O)[C@@H](C)O)C(=O)N[C@@H](Cc1c[nH]c2ccccc12)C(N)=O [Compound No. 738, Ac-D-Tyr-D-Gln-Asn-Thr-Phe-AzaGly-Leu-Arg(Me)-Trp-NH2] (Ac-[dY][dQ]NTF[azaGly]L[Arg(Me)]W-NH2) | 1.4 |
| CNC(=N)NCCC[C@H](NC(=O)[C@H](CC(C)C)NC(=O)NNC(=O)[C@H](Cc1ccccc1)NC(=O)[C@@H](NC(=O)[C@H](CC(N)=O)NC(=O)[C@@H](Cc1cnc[nH]1)NC(=O)[C@@H](Cc1ccc(O)cc1)NC(C)=O)[C@@H](C)O)C(=O)N[C@@H](Cc1c[nH]c2ccccc12)C(N)=O [Compound No. 739, Ac-D-Tyr-D-His-Asn-Thr-Phe-AzaGly-Leu-Arg(Me)-Trp-NH2] (Ac-[dY][dH]NTF[azaGly]L[Arg(Me)]W-NH2) | 1.6 |
| CNC(=N)NCCC[C@H](NC(=O)[C@H](CC(C)C)NC(=O)NNC(=O)[C@H](Cc1ccccc1)NC(=O)CNC(=O)[C@H](CC(N)=O)NC(=O)[C@@H]1C[C@@H](O)CN1C(=O)[C@@H](Cc1ccc(O)cc1)NC(C)=O)C(=O)N[C@@H](Cc1c[nH]c2ccccc12)C(N)=O [Compound No. 813, Ac-D-Tyr-Hyp-Asn-Gly-Phe-AzaGly-Leu-Arg(Me)-Trp-NH2] (Ac-[dY][Hyp]NGF[azaGly]L[Arg(Me)]W-NH2) | 0.5 |
| CNC(=N)NCCC[C@H](NC(=O)[C@H](CC(C)C)NC(=O)NNC(=O)[C@H](Cc1ccccc1)NC(=O)[C@H](NC(=O)[C@H](CC(N)=O)NC(=O)[C@@H]1C[C@@H](O)CN1C(=O)[C@@H](Cc1ccc(O)cc1)NC(C)=O)[C@H](C)O)C(=O)N[C@@H](Cc1c[nH]c2ccccc12)C(N)=O [Compound No. 846, Ac-D-Tyr-Hyp-Asn-D-Thr-Phe-AzaGly-Leu-Arg(Me)-Trp-NH2] (Ac-[dY][Hyp]N[dT]F[azaGly]L[Arg(Me)]W-NH2) | 0.9 |
| CNC(=N)NCCC[C@H](NC(=O)[C@H](CC(C)C)NC(=O)NNC(=O)[C@H](Cc1ccccc1)NC(=O)[C@@H](NC(=O)[C@H](CC(N)=O)NC(C)=O)[C@@H](C)O)C(=O)N[C@@H](Cc1c[nH]c2ccccc12)C(N)=O [Compound No. 709, Ac-Asn-Thr-Phe-AzaGly-Leu-Arg(Me)-Trp-NH2] (Ac-NTF[azaGly]L[Arg(Me)]W-NH2) | 9.8 |
| CNC(=N)NCCC[C@H](NC(=O)[C@H](CC(C)C)NC(=O)NNC(=O)[C@H](Cc1cccc(F)c1)NC(=O)[C@@H](NC(=O)[C@H](CC(N)=O)NC(=O)[C@H](CCCCN)NC(=O)[C@@H](Cc1ccc(O)cc1)NC(C)=O)[C@@H](C)O)C(=O)N[C@@H](Cc1c[nH]c2ccccc12)C(N)=O [Compound No. 756, Ac-D-Tyr-Lys-Asn-Thr-Phe(3F)-AzaGly-Leu-Arg(Me)-Trp-NH2] (Ac-[dY]KNT[Phe(3-F)][azaGly]L[Arg(Me)]W-NH2) | 2.4 |
| CNC(=N)NCCC[C@H](NC(=O)[C@H](CC(C)C)NC(=O)NNC(=O)[C@H](Cc1ccccc1)NC(=O)c1ccc(NC(N)=O)cc1)C(=O)N[C@@H](Cc1c[nH]c2ccccc12)C(N)=O [Compound No. 860, 4-Ureidobenzoyl-Phe-AzaGly-Leu-Arg(Me)-Trp-NH2] | 1.3 |
| CNC(=N)NCCC[C@H](NC(=O)[C@H](CC(C)C)NC(=O)NNC(=O)[C@H](Cc1ccccc1F)NC(=O)[C@@H](NC(=O)[C@H](CC(N)=O)NC(=O)[C@@H]1C[C@@H](O)CN1C(=O)[C@@H](Cc1ccc(O)cc1)NC(C)=O)[C@@H](C)O)C(=O)N[C@@H](Cc1c[nH]c2ccccc12)C(N)=O [Compound No. 763, Ac-D-Tyr-Hyp-Asn-Thr-Phe(2F)-AzaGly-Leu-Arg(Me)-Trp-NH2] (Ac-[dY][Hyp]NT[Phe(2-F)][azaGly]L[Arg(Me)]W-NH2) | 6.4 |
| CNC(=N)NCCC[C@H](NC(=O)[C@H](CC(C)C)NC(=O)NNC(=O)[C@H](Cc1ccccc1)NC(=O)[C@@H](NC(=O)[C@H](CC(N)=O)NC(=O)[C@@H](C)N(C)C(=O)[C@@H](Cc1ccc(O)cc1)NC(C)=O)[C@@H](C)O)C(=O)N[C@@H](Cc1c[nH]c2ccccc12)C(N)=O [Compound No. 732, Ac-D-Tyr-D-NMeAla-Asn-Thr-Phe-AzaGly-Leu-Arg(Me)-Trp-NH2] (Ac-[dY][dNMeA]NTF[azaGly]L[Arg(Me)]W-NH2) | 3.2 |
| Ac-D-Tyr-Aze(3)-Asn-Thr-Phe-AzaGly-Leu-Arg(Me)-Trp-NH2 [Compound No. 730] | 4.1 |
| CNC(=N)NCCC[C@H](NC(=O)[C@H](CC(C)C)NC(=O)NNC(=O)[C@H](Cc1ccccc1)NC(=O)[C@@H](NC(=O)[C@H](CC(N)=O)NC(=O)CCNC(=O)[C@@H](Cc1ccc(O)cc1)NC(C)=O)[C@@H](C)O)C(=O)N[C@@H](Cc1c[nH]c2ccccc12)C(N)=O [Compound No. 747, Ac-D-Tyr-β-Ala-Asn-Thr-Phe-AzaGly-Leu-Arg(Me)-Trp-NH2] (Ac-[dY][βAla]NTF[azaGly]L[Arg(Me)]W-NH2) | 2.6 |
| CNC(=N)NCCC[C@H](NC(=O)[C@H](CC(C)C)NC(=O)NNC(=O)[C@H](Cc1ccccc1)NC(=O)[C@@H](NC(=O)[C@@H](CC(N)=O)NC(=O)[C@@H]1C[C@@H](O)CN1C(=O)[C@@H](Cc1ccc(O)cc1)NC(C)=O)[C@@H](C)O)C(=O)N[C@@H](Cc1c[nH]c2ccccc12)C(N)=O [Compound No. 844, Ac-D-Tyr-Hyp-D-Asn-Thr-Phe-AzaGly-Leu-Arg(Me)-Trp-NH2] (Ac-[dY][Hyp][dN]TF[azaGly]L[Arg(Me)]W-NH2) | 0.9 |
| CNC(=N)NCCC[C@H](NC(=O)[C@H](CC(C)C)NC(=O)NNC(=O)[C@H](Cc1ccccc1)NC(=O)[C@H](C)NC(=O)[C@H](CC(N)=O)NC(=O)[C@@H]1C[C@@H](O)CN1C(=O)[C@@H](Cc1ccc(O)cc1)NC(C)=O)C(=O)N[C@@H](Cc1c[nH]c2ccccc12)C(N)=O [Compound No. 814, Ac-D-Tyr-Hyp-Asn-Ala-Phe-AzaGly-Leu-Arg(Me)-Trp-NH2] (Ac-[dY][Hyp]NAF[azaGly]L[Arg(Me)]W-NH2) | 0.5 |
| CNC(=N)NCCC[C@H](NC(=O)[C@H](CC(C)C)NC(=O)NNC(=O)[C@H](Cc1ccc(Cl)cc1)NC(=O)[C@@H](NC(=O)[C@H](CC(N)=O)NC(=O)C(C)(C)NC(=O)[C@@H](Cc1ccc(O)cc1)NC(C)=O)[C@@H](C)O)C(=O)N[C@@H](Cc1c[nH]c2ccccc12)C(N)=O [Compound No. 770, Ac-D-Tyr-Aib-Asn-Thr-Phe(4Cl)-AzaGly-Leu-Arg(Me)-Trp-NH2] (Ac-[dY][Aib]NT[Phe(4-Cl)][azaGly]L[Arg(Me)]W-NH2) | 2.6 |
| CNC(=N)NCCC[C@H](NC(=O)[C@H](CC(C)C)NC(=O)NNC(=O)[C@H](Cc1ccccc1C)NC(=O)[C@@H](NC(=O)[C@H](CC(N)=O)NC(=O)[C@@H]1C[C@@H](O)CN1C(=O)[C@@H](Cc1ccc(O)cc1)NC(C)=O)[C@@H](C)O)C(=O)N[C@@H](Cc1c[nH]c2ccccc12)C(N)=O [Compound No. 870, Ac-D-Tyr-Hyp-Asn-Thr-Phe(2Me)-AzaGly-Leu-Arg(Me)-Trp-NH2] (Ac-[dY][Hyp]NT[Phe(2-Me)][azaGly]L[Arg(Me)]W-NH2) | 0.6 |
| CNC(=N)NCCC[C@H](NC(=O)[C@H](CC(C)C)NC(=O)NNC(=O)[C@H](Cc1ccc(F)cc1)NC(=O)[C@@H](NC(=O)[C@H](CC(N)=O)NC(=O)[C@H](CCCCN)NC(=O)[C@@H](Cc1ccc(O)cc1)NC(C)=O)[C@@H](C)O)C(=O)N[C@@H](Cc1c[nH]c2ccccc12)C(N)=O [Compound No. 789, Ac-D-Tyr-Lys-Asn-Thr-Phe(4F)-AzaGly-Leu-Arg(Me)-Trp-NH2] (Ac-[dY]KNT[Phe(4-F)][azaGly]L[Arg(Me)]W-NH2) | 3.4 |
